The results in this text go back to patent publication US8519096B2, “Citrullinated peptides for diagnosing and prognosing rheumatoid arthritis” (Nestec S.A., priority 2009, dated 2013).

The assay has as its system IgG ACPAs. The assay is described as follows: ACPA ELISA with anti-human IgG secondary antibody. In kind it is binding. The following applies: for IgG ACPA positive response (strong/moderate): Example 7, FIGS. 20-27. On the procedure: The synthetic citrullnated peptides set forth in Example 6, which were designed from synovial proteins, were synthesized and evaluated for their ability to diagnose and/or prognose RA. […] The peptides were then tested for IgG ACPA dose-response in samples of synovial fluid taken from both healthy patients and patients with RA.
Background: An ELISA detects its analyte on a solid surface through an enzyme-linked reagent.

Non-standard residues stand in square brackets, D forms with d. No end group written: not given here. *: point of attachment. Biotin = O=C1N[C@H]2[C@H](CS[C@H]2CCCCC(=O)*)N1; Cit = NC(=O)NCCC[C@H](N)C(=O)O

For “Apo a-4: synthetic citrullinated peptide derived from Apolipoprotein a, Table 8 (Biotin-HWHQ[Cit]TTEYYPNGGLT[Cit]GGLTRNYS[Cit]N-NH2; SMILES CC(C)C[C@H](NC(=O)CNC(=O)CNC(=O)[C@H](CC(N)=O)NC(=O)[C@@H]1CCCN1C(=O)[C@H](Cc1ccc(O)cc1)NC(=O)[C@H](Cc1ccc(O)cc1)NC(=O)[C@H](CCC(=O)O)NC(=O)[C@@H](NC(=O)[C@@H](NC(=O)[C@H](CCCNC(N)=O)NC(=O)[C@H](CCC(N)=O)NC(=O)[C@H](Cc1c[nH]cn1)NC(=O)[C@H](Cc1c[nH]c2ccccc12)NC(=O)[C@H](Cc1c[nH]cn1)NC(=O)CCCC[C@@H]1SC[C@@H]2NC(=O)N[C@@H]21)[C@@H](C)O)[C@@H](C)O)C(=O)N[C@H](C(=O)N[C@@H](CCCNC(N)=O)C(=O)NCC(=O)NCC(=O)N[C@@H](CC(C)C)C(=O)N[C@H](C(=O)N[C@@H](CCCNC(=N)N)C(=O)N[C@@H](CC(N)=O)C(=O)N[C@@H](Cc1ccc(O)cc1)C(=O)N[C@@H](CO)C(=O)N[C@@H](CCCNC(N)=O)C(=O)N[C@@H](CC(N)=O)C(N)=O)[C@@H](C)O)[C@@H](C)O)”, the “IgG ACPA positive response (strong/moderate)” value is reported as “strong”.

Turning to “Apo a-6: synthetic citrullinated peptide derived from Apolipoprotein a, Table 8 (Biotin-HWHR[Cit]IPLYYPNAGLT[Cit]AGLTRNYS[Cit]N-NH2; SMILES CC[C@H](C)[C@H](NC(=O)[C@H](CCCNC(N)=O)NC(=O)[C@H](CCCNC(=N)N)NC(=O)[C@H](Cc1c[nH]cn1)NC(=O)[C@H](Cc1c[nH]c2ccccc12)NC(=O)[C@H](Cc1c[nH]cn1)NC(=O)CCCC[C@@H]1SC[C@@H]2NC(=O)N[C@@H]21)C(=O)N1CCC[C@H]1C(=O)N[C@@H](CC(C)C)C(=O)N[C@@H](Cc1ccc(O)cc1)C(=O)N[C@@H](Cc1ccc(O)cc1)C(=O)N1CCC[C@H]1C(=O)N[C@@H](CC(N)=O)C(=O)N[C@@H](C)C(=O)NCC(=O)N[C@@H](CC(C)C)C(=O)N[C@H](C(=O)N[C@@H](CCCNC(N)=O)C(=O)N[C@@H](C)C(=O)NCC(=O)N[C@@H](CC(C)C)C(=O)N[C@H](C(=O)N[C@@H](CCCNC(=N)N)C(=O)N[C@@H](CC(N)=O)C(=O)N[C@@H](Cc1ccc(O)cc1)C(=O)N[C@@H](CO)C(=O)N[C@@H](CCCNC(N)=O)C(=O)N[C@@H](CC(N)=O)C(N)=O)[C@@H](C)O)[C@@H](C)O)”, the “IgG ACPA positive response (strong/moderate)” value is given as “strong”.

Turning to “Biotin-GGGP[Cit]VVE[Cit]HQSAGGGTK[Cit]GHAKSRPV[Cit]GIHT [[Arg^25]Cit-α32]”, the “sensitivity for autoantibodies of the IgG class (in words)” value is “particularly high sensitivity”. Further, where the note is “FIG. 4, IgG ACPAs”, the “EC50 of the INOVA CCP IgG assay relative to EC50 of the peptide assay” value is 143 fold.

In the case of “Bip-2: synthetic citrullinated peptide derived from BiP, Table 8 (Biotin-DVRKDN[Cit]AVQKLR[Cit]EVEKAK[Cit]ALSSQHQ-NH2; SMILES CC(C)C[C@H](NC(=O)[C@H](C)NC(=O)[C@H](CCCNC(N)=O)NC(=O)[C@H](CCCCN)NC(=O)[C@H](C)NC(=O)[C@H](CCCCN)NC(=O)[C@H](CCC(=O)O)NC(=O)[C@@H](NC(=O)[C@H](CCC(=O)O)NC(=O)[C@H](CCCNC(N)=O)NC(=O)[C@H](CCCNC(=N)N)NC(=O)[C@H](CC(C)C)NC(=O)[C@H](CCCCN)NC(=O)[C@H](CCC(N)=O)NC(=O)[C@@H](NC(=O)[C@H](C)NC(=O)[C@H](CCCNC(N)=O)NC(=O)[C@H](CC(N)=O)NC(=O)[C@H](CC(=O)O)NC(=O)[C@H](CCCCN)NC(=O)[C@H](CCCNC(=N)N)NC(=O)[C@@H](NC(=O)[C@H](CC(=O)O)NC(=O)CCCC[C@@H]1SC[C@@H]2NC(=O)N[C@@H]21)C(C)C)C(C)C)C(C)C)C(=O)N[C@@H](CO)C(=O)N[C@@H](CO)C(=O)N[C@@H](CCC(N)=O)C(=O)N[C@@H](Cc1c[nH]cn1)C(=O)N[C@@H](CCC(N)=O)C(N)=O)”, the “IgG ACPA positive response (strong/moderate)” value is recorded as “moderate”.

“Bip-3: synthetic citrullinated peptide derived from BiP, Table 8 (Biotin-GEDFSETLT[Cit]DLF[Cit]STMKPIVLVGGST[Cit]R-NH2; SMILES CC[C@H](C)[C@H](NC(=O)[C@@H]1CCCN1C(=O)[C@H](CCCCN)NC(=O)[C@H](CCSC)NC(=O)[C@@H](NC(=O)[C@H](CO)NC(=O)[C@H](CCCNC(N)=O)NC(=O)[C@H](Cc1ccccc1)NC(=O)[C@H](CC(C)C)NC(=O)[C@H](CC(=O)O)NC(=O)[C@H](CCCNC(N)=O)NC(=O)[C@@H](NC(=O)[C@H](CC(C)C)NC(=O)[C@@H](NC(=O)[C@H](CCC(=O)O)NC(=O)[C@H](CO)NC(=O)[C@H](Cc1ccccc1)NC(=O)[C@H](CC(=O)O)NC(=O)[C@H](CCC(=O)O)NC(=O)CNC(=O)CCCC[C@@H]1SC[C@@H]2NC(=O)N[C@@H]21)[C@@H](C)O)[C@@H](C)O)[C@@H](C)O)C(=O)N[C@H](C(=O)N[C@@H](CC(C)C)C(=O)N[C@H](C(=O)NCC(=O)NCC(=O)N[C@@H](CO)C(=O)N[C@H](C(=O)N[C@@H](CCCNC(N)=O)C(=O)N[C@@H](CCCNC(=N)N)C(N)=O)[C@@H](C)O)C(C)C)C(C)C)”: the “IgG ACPA positive response (strong/moderate)” value is “moderate”.

For “FBNT-3: synthetic citrullinated peptide derived from fibronectin, Table 8 (Biotin-GVLV[Cit]WTPPRLVRWTPP[Cit]AQG-NH2; SMILES CC(C)C[C@H](NC(=O)[C@H](CCCNC(=N)N)NC(=O)[C@@H]1CCCN1C(=O)[C@@H]1CCCN1C(=O)[C@@H](NC(=O)[C@H](Cc1c[nH]c2ccccc12)NC(=O)[C@H](CCCNC(N)=O)NC(=O)[C@@H](NC(=O)[C@H](CC(C)C)NC(=O)[C@@H](NC(=O)CNC(=O)CCCC[C@@H]1SC[C@@H]2NC(=O)N[C@@H]21)C(C)C)C(C)C)[C@@H](C)O)C(=O)N[C@H](C(=O)N[C@@H](CCCNC(=N)N)C(=O)N[C@@H](Cc1c[nH]c2ccccc12)C(=O)N[C@H](C(=O)N1CCC[C@H]1C(=O)N1CCC[C@H]1C(=O)N[C@@H](CCCNC(N)=O)C(=O)N[C@@H](C)C(=O)N[C@@H](CCC(N)=O)C(=O)NCC(N)=O)[C@@H](C)O)C(C)C)”, the “IgG ACPA positive response (strong/moderate)” value is “moderate”.

Consider “FBNT-5: synthetic citrullinated peptide derived from fibronectin, Table 8 (Biotin-RGVLTVSWE[Cit]STTPDITGY[Cit]ITTTPTNR-NH2; SMILES CC[C@H](C)[C@H](NC(=O)[C@H](CC(=O)O)NC(=O)[C@@H]1CCCN1C(=O)[C@@H](NC(=O)[C@@H](NC(=O)[C@H](CO)NC(=O)[C@H](CCCNC(N)=O)NC(=O)[C@H](CCC(=O)O)NC(=O)[C@H](Cc1c[nH]c2ccccc12)NC(=O)[C@H](CO)NC(=O)[C@@H](NC(=O)[C@@H](NC(=O)[C@H](CC(C)C)NC(=O)[C@@H](NC(=O)CNC(=O)[C@H](CCCNC(=N)N)NC(=O)CCCC[C@@H]1SC[C@@H]2NC(=O)N[C@@H]21)C(C)C)[C@@H](C)O)C(C)C)[C@@H](C)O)[C@@H](C)O)C(=O)N[C@H](C(=O)NCC(=O)N[C@@H](Cc1ccc(O)cc1)C(=O)N[C@@H](CCCNC(N)=O)C(=O)N[C@H](C(=O)N[C@H](C(=O)N[C@H](C(=O)N[C@H](C(=O)N1CCC[C@H]1C(=O)N[C@H](C(=O)N[C@@H](CC(N)=O)C(=O)N[C@@H](CCCNC(=N)N)C(N)=O)[C@@H](C)O)[C@@H](C)O)[C@@H](C)O)[C@@H](C)O)[C@@H](C)CC)[C@@H](C)O)”, for which the “IgG ACPA positive response (strong/moderate)” value was “moderate”.
